How the values were obtained:
[1] = target: T1, human androgenic receptor (Homo sapiens, UniProt P10275); experiment: Yeast-based androgenic reporter assay, agonistic; format: cell-based; conditions: read-out: Calculated EC50 values, androgenic activity
T1 construct: host or cells: Saccharomyces cerevisiae
T1 sequence (P10275 1-920): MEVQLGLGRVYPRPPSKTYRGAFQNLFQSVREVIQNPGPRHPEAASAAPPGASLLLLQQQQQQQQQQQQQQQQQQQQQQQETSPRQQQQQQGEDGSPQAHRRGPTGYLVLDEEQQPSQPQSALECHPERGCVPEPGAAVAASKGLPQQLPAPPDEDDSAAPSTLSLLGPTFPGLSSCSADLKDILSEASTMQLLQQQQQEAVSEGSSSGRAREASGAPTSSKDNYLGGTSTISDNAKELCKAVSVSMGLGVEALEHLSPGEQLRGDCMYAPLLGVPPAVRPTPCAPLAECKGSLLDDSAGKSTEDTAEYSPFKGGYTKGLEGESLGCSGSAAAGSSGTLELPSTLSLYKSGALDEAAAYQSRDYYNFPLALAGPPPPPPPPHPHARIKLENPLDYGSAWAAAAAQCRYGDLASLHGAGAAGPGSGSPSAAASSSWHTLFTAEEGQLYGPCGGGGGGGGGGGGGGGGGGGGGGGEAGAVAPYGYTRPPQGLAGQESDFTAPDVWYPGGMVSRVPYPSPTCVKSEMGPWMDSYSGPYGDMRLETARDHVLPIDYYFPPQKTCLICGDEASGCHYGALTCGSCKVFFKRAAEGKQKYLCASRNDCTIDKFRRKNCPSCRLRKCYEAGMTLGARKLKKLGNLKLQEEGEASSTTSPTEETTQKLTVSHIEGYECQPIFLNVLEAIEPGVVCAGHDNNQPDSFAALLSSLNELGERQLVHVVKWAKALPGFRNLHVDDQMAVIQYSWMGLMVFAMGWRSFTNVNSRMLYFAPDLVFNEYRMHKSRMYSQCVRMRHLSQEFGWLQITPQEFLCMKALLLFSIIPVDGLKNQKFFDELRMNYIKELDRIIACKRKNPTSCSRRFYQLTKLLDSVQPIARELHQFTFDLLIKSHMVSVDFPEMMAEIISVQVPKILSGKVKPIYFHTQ
Procedure: Genetically modified yeast cells (Saccharomyces cerevisiae) containing the human androgenic receptor gene integrated into a yeast chromosome, as well as an expression plasmid with the sequences of both the androgen responsive element and a lacZ reporter gene were cultured in humidified air at 31°C with agitation for 2 days. The appropriate concentrations of the test compounds and a CPRG substrate solution (chlorophenol red-β-D-galactopyranoside) for β-galactosidase were added into a 96-well microplate according to the instructions of the manufacturer. Androgen agonistic and antagonistic properties of the test compounds were determined by a colorimetric assay. For the antagonistic measurements the medium was supplemented with 5α-dihydrotestosterone (DHT). Once the reporter gene is expressed, β-galactosidase is secreted into the medium, and converts the yellow CPRG substrate into a red product, which can be quantified at 570 nm. Quantities of this red product correlate with the liberation of β-galactosidase, which is increased when an agonistic effect is present, while it is decreased when the test compound exerts an antagonistic effect. For the agonistic and antagonistic assays, nandrolone (1) and flutamide were used as reference agents, respectively.

[2] = target: T1, human androgenic receptor; experiment: Yeast-based androgenic reporter assay, antagonistic; format: cell-based; conditions: in the presence of 5α-dihydrotestosterone
Procedure: An endocrine bioassay kit (Xenometrix AG, Allschwil, Switzerland) was used to test for a potential residual androgenic activity of the selected agents. Genetically modified yeast cells (Saccharomyces cerevisiae) containing the human androgenic receptor gene integrated into a yeast chromosome, as well as an expression plasmid with the sequences of both the androgen responsive element and a lacZ reporter gene were cultured in humidified air at 31°C with agitation for 2 days. The appropriate concentrations of the test compounds and a CPRG substrate solution (chlorophenol red-β-D-galactopyranoside) for β-galactosidase were added into a 96-well microplate according to the instructions of the manufacturer. Androgen agonistic and antagonistic properties of the test compounds were determined by a colorimetric assay. For the antagonistic measurements the medium was supplemented with 5α-dihydrotestosterone (DHT). Once the reporter gene is expressed, β-galactosidase is secreted into the medium, and converts the yellow CPRG substrate into a red product, which can be quantified at 570 nm. Quantities of this red product correlate with the liberation of β-galactosidase, which is increased when an agonistic effect is present, while it is decreased when the test compound exerts an antagonistic effect. […]

C[C@]12CC[C@H]3[C@@H](CCC4=CC(=O)CC[C@@H]43)[C@@H]1CC[C@H]2Cl [Compound 3]
EC50 [1]: 3.8 µM
androgen antagonistic activity [2]: no antagonistic activity
